Data set [1] relates to HepG2. Briefly: MTT antiproliferative assay, HepG2 cells. Format: cell-based. The note with it: Homo sapiens. The protocol:
(§1) All the cells were seeded in 96-well plates and incubated with 5% CO2 at 37 °C for 24 h. Next, the compounds and the reference were dissolved into the culture medium. The final concentration of DMSO in the medium was less than 0.5%. After the cells were treated with compounds for 48 h, the supernatant was removed and 5 mg/mL of a fresh prepared solution of MTT was added to each well and incubated with the cells at 37 °C for another 4 h. The medium was removed, and 100 μL of testing solution was added to each well. After an overnight incubation with 5% CO2 at 37 °C, the absorbance was measured at 490/630 nm by the microplate reader. The IC50 was calculated using GraphPad Prism version 6.0 software (San Diego, CA, USA) from the non-linear curve.
On the technique in general: Formazan colour is commonly taken as a measure of viable cells.

Data set [2] relates to Karpas299. Briefly: MTT antiproliferative assay, Karpas299 cells. The class given is cell-based. To be noted: Homo sapiens, KARPAS-299. As to the method:
as §1

In data set [3] the test system is MCF-7. Briefly: MTT antiproliferative assay, MCF-7 cells. The class given is cell-based. To be noted: Homo sapiens, MCF7; MCF-7, MTT. As to the method:
as §1

Data set [4] deals with PC-3. Briefly: MTT antiproliferative assay, PC-3 cells. The class given is cell-based. To be noted: Homo sapiens; PC-3, MTT. As to the method: as §1
In data set [5] the test system is HT29. Briefly: MTT antiproliferative assay, HT29 cells. Format: cell-based. The note with it: Homo sapiens, HT-29; for inhibition at 2 µg/mL: HT29, 2 μg/mL; for inhibition at 2 µg/mL / inhibition at 20 µg/mL: 48 h, MTT, read-out: Antiproliferative activity (growth inhibition, %); for inhibition at 20 µg/mL: HT29, 20 μg/mL; for IC50: HT29, MTT. As to the method: as §1

For data set [6], the system named is A549. Kind of data set: MTT antiproliferative assay, A549 cells. To be noted: Homo sapiens; for inhibition at 2 µg/mL: A549, 2 μg/mL; for inhibition at 2 µg/mL / inhibition at 20 µg/mL: 48 h, MTT, read-out: Antiproliferative activity (growth inhibition, %); for inhibition at 20 µg/mL: A549, 20 μg/mL; for IC50: A549, MTT. Format: cell-based. The protocol: as §1

In brackets after ≈: the same amount, converted by molar mass.

This is an account of results in PMC6803848, “Exploring New Structural Features of the 18β-Glycyrrhetinic Acid Scaffold for the Inhibition of Anaplastic Lymphoma Kinase” (Molecules, 2019).

A word on the IC50: it is the concentration at which inhibition is half-maximal. Low readings indicate greater potency, high ones weaker potency. By inhibition is commonly meant the share of the control response that was lost under treatment. With `CC1(C)C2CC[C@]3(C)[C@H](C(=O)C=C4[C@@H]5C[C@@](C)(C(=O)O)CC[C@]5(C)CC[C@]43C)[C@@]2(C)CC[C@@H]1OC(=O)Nc1cccc(Cl)c1` (stereo partly drawn) [3e, 3β-(((3-chlorophenyl)carbamoyl)oxy)-11-oxo-olean-12-en-30-oic acid], the IC50 in data set [1] was 11.9 µg/mL (≈ 19.1 µM); in data set [2], 7.31 µg/mL (≈ 11.7 µM); in data set [3], 8.51 µg/mL (≈ 13.6 µM); in data set [4] it was 9.75 µg/mL (≈ 15.6 µM); in data set [5] it was 10.9 µg/mL (≈ 17.5 µM); in data set [6] it was 11.3 µg/mL (≈ 18.2 µM). Also, the inhibition at 2 µg/mL in data set [5] turned out to be 18.8%; in data set [6] it was 14.3%. The inhibition at 20 µg/mL in data set [5] amounted to 96.4%; in data set [6] it was 74.9%.

The term melting point denotes the temperature, or range, at which the solid turns liquid. As to `CC1(C(=O)N2CCOCC2)CCC2(C)CCC3(C)C(=CC(=O)C4C5(C)CCC(OC(=O)Nc6ccc(F)cc6)C(C)(C)C5CCC43C)C2C1` (stereo not drawn) [4h, 3β-(((4-fluorophenyl)carbamoyl)oxy)-30-morpholino-olean-12-ene-11,30-dione], the melting point is 305.1 to 311.4 °C. In data set [5], the inhibition at 2 µg/mL stood at 14.8% and the inhibition at 20 µg/mL amounted to 30.4%. In addition, in data set [6], the inhibition at 2 µg/mL was determined as 0% and the inhibition at 20 µg/mL came to 8.54%.

With `CC1(C)C2CC[C@]3(C)[C@H](C(=O)C=C4[C@@H]5C[C@@](C)(C(=O)N6CCOCC6)CC[C@]5(C)CC[C@]43C)[C@@]2(C)CC[C@@H]1OC(=O)Nc1ccc(C(F)(F)F)cc1` (stereo partly drawn) [4i, 3β-(((4-(trifluoromethyl)phenyl)carbamoyl)oxy)-30-morpholino-olean-12-ene-11,30-dione], the melting point was in the range of 296.4 to 298 °C. Further, in data set [5], the inhibition at 2 µg/mL is 13.7% and the inhibition at 20 µg/mL was 27.3%. Moreover, in data set [6], the inhibition at 2 µg/mL stood at 0% and the inhibition at 20 µg/mL was determined as 4.46%.

For `CC1(C(=O)N2CCOCC2)CCC2(C)CCC3(C)C(=CC(=O)C4C5(C)CCC(OC(=O)Nc6cccc(C(F)(F)F)c6)C(C)(C)C5CCC43C)C2C1` (stereo not drawn) [4j, 3β-(((3-(trifluoromethyl)phenyl)carbamoyl)oxy)-30-morpholino-olean-12-ene-11,30-dione], the melting point lay within 295 to 296.7 °C. Also, in data set [5], the inhibition at 2 µg/mL is 20.3% and the inhibition at 20 µg/mL was determined as 36.4%. For the same molecule, in data set [6], the inhibition at 2 µg/mL was found to be 0% and the inhibition at 20 µg/mL worked out at 0%.

In turn, `CC1(C)C2CC[C@]3(C)[C@H](C(=O)C=C4[C@@H]5C[C@@](C)(C(=O)N6CCOCC6)CC[C@]5(C)CC[C@]43C)[C@@]2(C)CC[C@@H]1OC(=O)Nc1cc(C(F)(F)F)cc(C(F)(F)F)c1` (stereo partly drawn) [4k, 3β-(((3,5-bis(trifluoromethyl)phenyl)carbamoyl)oxy)-30-morpholino-olean-12-ene-11,30-dione] displayed a melting point of 313.4 to 314.7 °C. In data set [5], the inhibition at 2 µg/mL worked out at 13% and the inhibition at 20 µg/mL is 14.9%. For the same molecule, in data set [6], the inhibition at 2 µg/mL worked out at 4.47% and the inhibition at 20 µg/mL is 0%.

With `COc1cccc(NC(=O)O[C@H]2CC[C@@]3(C)C(CC[C@]4(C)[C@@H]3C(=O)C=C3[C@@H]5C[C@@](C)(C(=O)N6CCOCC6)CC[C@]5(C)CC[C@]34C)C2(C)C)c1` (stereo partly drawn) [4l, 3β-(((3-methoxyphenyl)carbamoyl)oxy)-30-morpholino-olean-12-ene-11,30-dione], the melting point fell in the range of 305 to 306.8 °C. In addition, in data set [5], the inhibition at 2 µg/mL was found to be 13.6% and the inhibition at 20 µg/mL was 16.6%. Moreover, in data set [6], the inhibition at 2 µg/mL is 0% and the inhibition at 20 µg/mL is 0%.

Molecule `COc1ccc(NC(=O)O[C@H]2CC[C@@]3(C)C(CC[C@]4(C)[C@@H]3C(=O)C=C3[C@@H]5C[C@@](C)(C(=O)N6CCOCC6)CC[C@]5(C)CC[C@]34C)C2(C)C)cc1` (stereo partly drawn) [4m, 3β-(((4-methoxyphenyl)carbamoyl)oxy)-30-morpholino-olean-12-ene-11,30-dione] registered a melting point of 305 to 306.7 °C. In data set [5], the inhibition at 2 µg/mL came out at 15.7% and the inhibition at 20 µg/mL was found to be 23.2%. Further, in data set [6], the inhibition at 2 µg/mL stood at 0% and the inhibition at 20 µg/mL came out at 8.11%.

`CC1(C(=O)N2CCOCC2)CCC2(C)CCC3(C)C(=CC(=O)C4C5(C)CCC(OC(=O)Nc6ccc(OC(F)(F)F)cc6)C(C)(C)C5CCC43C)C2C1` (stereo not drawn) [4n, 3β-(((4-(trifluoromethoxy)phenyl)carbamoyl)oxy)-30-morpholino-olean-12-ene-11,30-dione]: the melting point fell in the range of 308 to 310.1 °C. In data set [5], the inhibition at 2 µg/mL is 7.12% and the inhibition at 20 µg/mL stood at 40.2%. Also, in data set [6], the inhibition at 2 µg/mL came out at 0% and the inhibition at 20 µg/mL is 0%.

Turning to `CC1(C)C2CC[C@]3(C)[C@H](C(=O)C=C4[C@@H]5C[C@@](C)(C(=O)O)CC[C@]5(C)CC[C@]43C)[C@@]2(C)CC[C@@H]1OC(=O)CN1CCOCC1` (stereo partly drawn) [6a, 3β-(2-morpholinoacetoxy)-11-oxo-olean-12-en-30-oic acid], the melting point was 275.3 to 276.4 °C. In data set [5], the inhibition at 2 µg/mL turned out to be 0% and the inhibition at 20 µg/mL is 0%. In addition, in data set [6], the inhibition at 2 µg/mL was determined as 0% and the inhibition at 20 µg/mL was found to be 0%.

With `CC1(C)C2CC[C@]3(C)[C@H](C(=O)C=C4[C@@H]5C[C@@](C)(C(=O)O)CC[C@]5(C)CC[C@]43C)[C@@]2(C)CC[C@@H]1OC(=O)CN1CCC(C(N)=O)CC1` (stereo partly drawn) [6b, 3β-(2-(4-carbamoylpiperidin-1-yl)acetoxy)-11-oxo-olean-12-en-30-oic acid], the melting point was in the range of 283.5 to 285 °C. Further, in data set [5], the inhibition at 2 µg/mL stood at 0% and the inhibition at 20 µg/mL is 12.3%. In data set [6], the inhibition at 2 µg/mL turned out to be 0% and the inhibition at 20 µg/mL was found to be 0%.

In turn, `CN1CCN(CC(=O)O[C@H]2CC[C@@]3(C)C(CC[C@]4(C)[C@@H]3C(=O)C=C3[C@@H]5C[C@@](C)(C(=O)O)CC[C@]5(C)CC[C@]34C)C2(C)C)CC1` (stereo partly drawn) [6c, 3β-(2-(4-methylpiperazin-1-yl)acetoxy)-11-oxo-olean-12-en-30-oic acid] gave a melting point of 287.5 to 288.9 °C. In data set [5], the inhibition at 2 µg/mL stood at 0% and the inhibition at 20 µg/mL was determined as 0%. In addition, in data set [6], the inhibition at 2 µg/mL was determined as 0% and the inhibition at 20 µg/mL is 0%.

In turn, `CC1(C)C2CC[C@]3(C)[C@H](C(=O)C=C4[C@@H]5C[C@@](C)(C(=O)O)CC[C@]5(C)CC[C@]43C)[C@@]2(C)CC[C@@H]1OC(=O)CN1CCN(c2ccccn2)CC1` (stereo partly drawn) [6d, 3β-(2-(4-(pyridin-2-yl)piperazin-1-yl)acetoxy)-11-oxo-olean-12-en-30-oic acid] showed a melting point of 294 to 295.6 °C. Also, in data set [5], the inhibition at 2 µg/mL is 0% and the inhibition at 20 µg/mL amounted to 0%. For the same molecule, in data set [6], the inhibition at 2 µg/mL amounted to 0% and the inhibition at 20 µg/mL turned out to be 0%.

`CC1(C(=O)O)CCC2(C)CCC3(C)C(=CC(=O)C4C5(C)CCC(OC(=O)Cc6ccc(Cl)cc6)C(C)(C)C5CCC43C)C2C1` (stereo not drawn) [7a, 3β-(2-(4-chlorophenyl)acetoxy)-11-oxo-olean-12-en-30-oic acid] displayed a melting point of 312 to 312.7 °C. Further, in data set [5], the inhibition at 2 µg/mL was 33.3% and the inhibition at 20 µg/mL came out at 57.5%. For the same molecule, in data set [6], the inhibition at 2 µg/mL is 11.3% and the inhibition at 20 µg/mL stood at 27.4%.

`CC1(C)C2CC[C@]3(C)[C@H](C(=O)C=C4[C@@H]5C[C@@](C)(C(=O)O)CC[C@]5(C)CC[C@]43C)[C@@]2(C)CC[C@@H]1OC(=O)Cc1ccc(F)cc1` (stereo partly drawn) [7b, 3β-(2-(4-fluorophenyl)acetoxy)-11-oxo-olean-12-en-30-oic acid] gave a melting point of 305 to 307.7 °C. Further, in data set [5], the inhibition at 2 µg/mL turned out to be 44.1% and the inhibition at 20 µg/mL amounted to 59%. Also, in data set [6], the inhibition at 2 µg/mL was 15.3% and the inhibition at 20 µg/mL is 31.2%.

With `CC1(C)[C@@H](O)CC[C@]2(C)[C@H]3C(=O)C=C4[C@@H]5C[C@@](C)(C(=O)O)CC[C@]5(C)CC[C@@]4(C)[C@]3(C)CC[C@@H]12` [18β-GA, 18β-glycyrrhetinic acid], the IC50 in data set [1], in data set [2], in data set [3], in data set [4], in data set [5] and in data set [6] was more than 40 µg/mL in each case. Besides, the inhibition at 2 µg/mL in data set [5] and in data set [6] was 0% each time. Also, the inhibition at 20 µg/mL in data set [5] worked out at 12.9%; in data set [6] it was 8.41%.

For the molecule `C[C@@H](Oc1cc(-c2cnn(C3CCNCC3)c2)cnc1N)c1c(Cl)ccc(F)c1Cl` [Crizotinib, reference compound], the IC50 turned out to be 2.15 µg/mL (≈ 4.77 µM) in data set [1]; 0.28 µg/mL (≈ 0.622 µM) in data set [2]; 1.84 µg/mL (≈ 4.09 µM) in data set [3]; 3.3 µg/mL (≈ 7.33 µM) in data set [4]; 0.67 µg/mL (≈ 1.49 µM) in data set [5]; 1.27 µg/mL (≈ 2.82 µM) in data set [6]. The inhibition at 2 µg/mL worked out at 68.8% in data set [5] and 67.6% in data set [6]. The inhibition at 20 µg/mL turned out to be 99.8% in data set [5] and 97.3% in data set [6].
